In assay [1] the test system is HUVEC cells. Put plainly: Cell growth activity assay (MTS), HUVEC cell model. In kind it is cell-based. As to conditions: Homo sapiens, 10 μM, 72 h, read-out: HUVEC % growth rate @10 μM. The source says: MTS assay is a routine method for cell toxicity detection. The basic principle is based on the capacity of dehydrogenase in the mitochondria of living cells to reduce a novel yellow […] MTS to formazan, so that the amount of living cells is proportional to the amount of formazan product by detecting the absorbance at 490 nm (OD), thereby speculating the amount of living cells according to the OD value, and understanding the capacity of the test compound to inhibit the growth of cells or to kill the cells.
HeLa cell is a human cervical cancer cell line, and belongs to epithelial tumor cell line; HUVEC is a human umbilical vein endothelial cell, and belongs to primary endothelial cell; both types of cells express all subtypes except for JAK3.
The change of JAK kinase activity has no significant influence on other cell types except for the immune cells, and both cell models mentioned above are mainly used to evaluate whether there are any other kinase targets besides JAK kinases or there are nonselective cell toxicities.
In this experiment, a cultured cell model is incubated with the test compounds at different concentrations for a specific duration. The effect of the treatment by the test compound on the growth of cells is detected using MTS assay.
MTS is performed according to routine procedure in a 96-well plate.
The model cells are inoculated into each well of the 96-well plate at an appropriate concentration (about 5000 cells/well). After 24 h, the test compounds are added at different concentration gradients (the highest final concentration is 40 μM). A solvent control (DMSO) and a negative control are also performed at the same time. Each experiment is repeated for 3 times. The cells are detected after cultured for another 72 h.
After all culture medium is aspirated out of the well, 100 μL fresh medium and 20 μL pre-formulated mixture of MTS and PMS (in a ratio of 20:1) are added to each well. After incubation at 37° C. for 2 h, it is then detected by a microplate reader (490 nm).
The cell growth inhibitory rate and GI50 of the test compound are calculated as above.
Based on the above method, cytological evaluation is performed to the compounds described herein (for the detection of CTLL-2 cell, the concentration of the test compound is 300 nM; […]).

Assay [2] concerns the target JAK2 (Homo sapiens (Human), UniProt O60674). The assay can be described thus: Z'-LYTE enzymatic activity detection, JAK2. It counts as biochemical. To be noted: test compound 30 nM. A digest of the protocol:
(§1)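 GST-tagged human recombinant kinases with Z′-LYTE peptides (Tyr6 for JAK1, Tyr4 for JAK2 and JAK3), ATP from kit, reacted 1 h at room temperature; development 1 h, ratio 445/520 nm at 400 nm excitation gives phosphorylation. Inhibition vs solvent control at 30 nM (JAK2, JAK3) or 300 nM (JAK1); tofacitinib as positive control.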

For assay [3], the system named is HeLa cells. Put plainly: Cell growth activity assay (MTS), HeLa cell model. In kind it is cell-based, human. Also noted: activity: dose or concentration left out as unconfirmed. As to conditions: Homo sapiens, HeLa, 72 h, read-out: HeLa % growth rate. The method, boiled down:
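HeLa human cervical cancer cells were plated at about 5000 cells/well in a 96-well plate. After 24 h, test compounds were added in concentration gradients (highest final concentration 40 μM), alongside a DMSO solvent control and a negative control. After another 72 h, the medium was replaced with 100 μL fresh medium plus 20 μL MTS/PMS (20:1). Plates were incubated 2 h at 37° C. and absorbance was read at 490 nm to give growth inhibition and GI50.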

The target of assay [4] is JAK3 (Homo sapiens (Human), UniProt P52333). The assay can be described thus: Z'-LYTE enzymatic activity detection, JAK3. It counts as biochemical. To be noted: test compound 30 nM. A digest of the protocol:
as §1

Assay [5] has as its system CTLL-2 cells. The assay can be described thus: Cell growth activity assay (MTS), CTLL-2 cell model. In kind it is cell-based, mouse. As to conditions: Mus musculus, CTLL-2, 300 nM, 24 h, read-out: CTLL-2 % growth rate @300 nM. The method, boiled down: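 Mouse IL-2-dependent T-cell line seeded ~20,000 cells/well, compounds added after 24 h at gradient concentrations (top 10 μM; CTLL-2 evaluation at 300 nM), cultured another 24 h. MTS/PMS added, 2 h at 37° C, absorbance 490 nm; inhibition vs DMSO control after negative-control background subtraction, GI50 calculated; triplicate.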

Assay [6] deals with JAK1 (Homo sapiens (Human), UniProt P23458). Put plainly: Z'-LYTE enzymatic activity detection, JAK1. To be noted: test compound 300 nM. In kind it is biochemical. A digest of the protocol: as §1
Chain of JAK1 (P23458 whole entry): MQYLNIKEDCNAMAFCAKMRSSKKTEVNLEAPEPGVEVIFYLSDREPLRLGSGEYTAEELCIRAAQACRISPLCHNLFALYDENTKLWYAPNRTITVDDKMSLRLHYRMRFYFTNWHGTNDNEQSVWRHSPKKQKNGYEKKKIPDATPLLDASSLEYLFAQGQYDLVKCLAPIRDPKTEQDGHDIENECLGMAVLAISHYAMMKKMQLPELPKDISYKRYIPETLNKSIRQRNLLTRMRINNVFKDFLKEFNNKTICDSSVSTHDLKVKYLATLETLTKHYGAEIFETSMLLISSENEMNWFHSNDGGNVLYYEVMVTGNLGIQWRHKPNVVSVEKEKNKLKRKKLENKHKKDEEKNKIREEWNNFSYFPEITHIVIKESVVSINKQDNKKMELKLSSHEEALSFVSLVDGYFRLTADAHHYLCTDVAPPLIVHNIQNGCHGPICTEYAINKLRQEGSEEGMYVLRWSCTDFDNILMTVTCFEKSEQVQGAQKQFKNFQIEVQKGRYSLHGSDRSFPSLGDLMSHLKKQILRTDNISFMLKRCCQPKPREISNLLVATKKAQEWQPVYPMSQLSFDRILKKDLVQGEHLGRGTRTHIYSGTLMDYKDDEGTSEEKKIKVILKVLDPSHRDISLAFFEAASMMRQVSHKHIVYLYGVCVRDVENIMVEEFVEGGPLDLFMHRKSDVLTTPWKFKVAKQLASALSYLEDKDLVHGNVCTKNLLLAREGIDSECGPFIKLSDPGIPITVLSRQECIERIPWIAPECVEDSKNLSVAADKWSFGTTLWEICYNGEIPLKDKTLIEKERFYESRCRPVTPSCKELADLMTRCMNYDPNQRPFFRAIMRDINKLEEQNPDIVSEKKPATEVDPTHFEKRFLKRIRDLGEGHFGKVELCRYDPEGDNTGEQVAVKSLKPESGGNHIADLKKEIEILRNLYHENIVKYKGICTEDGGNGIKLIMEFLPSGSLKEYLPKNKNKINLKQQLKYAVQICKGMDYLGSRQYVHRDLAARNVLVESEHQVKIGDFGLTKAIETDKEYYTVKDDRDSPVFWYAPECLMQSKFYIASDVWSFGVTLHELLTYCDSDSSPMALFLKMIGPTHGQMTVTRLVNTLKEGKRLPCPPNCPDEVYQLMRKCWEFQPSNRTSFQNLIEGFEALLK

SMILES strings stand for the structures.

The values below come from patent publication US10011571B2, “Preparation method for aromatic heterocyclic compound used as selective JAK3 and/or JAK1 kinase inhibitor and application of aromatic heterocyclic compound” (SHENZHEN CHIPSCREEN BIOSCIENCES, LTD., priority 2014, dated 2018).

Chain of JAK3 (P52333 whole entry): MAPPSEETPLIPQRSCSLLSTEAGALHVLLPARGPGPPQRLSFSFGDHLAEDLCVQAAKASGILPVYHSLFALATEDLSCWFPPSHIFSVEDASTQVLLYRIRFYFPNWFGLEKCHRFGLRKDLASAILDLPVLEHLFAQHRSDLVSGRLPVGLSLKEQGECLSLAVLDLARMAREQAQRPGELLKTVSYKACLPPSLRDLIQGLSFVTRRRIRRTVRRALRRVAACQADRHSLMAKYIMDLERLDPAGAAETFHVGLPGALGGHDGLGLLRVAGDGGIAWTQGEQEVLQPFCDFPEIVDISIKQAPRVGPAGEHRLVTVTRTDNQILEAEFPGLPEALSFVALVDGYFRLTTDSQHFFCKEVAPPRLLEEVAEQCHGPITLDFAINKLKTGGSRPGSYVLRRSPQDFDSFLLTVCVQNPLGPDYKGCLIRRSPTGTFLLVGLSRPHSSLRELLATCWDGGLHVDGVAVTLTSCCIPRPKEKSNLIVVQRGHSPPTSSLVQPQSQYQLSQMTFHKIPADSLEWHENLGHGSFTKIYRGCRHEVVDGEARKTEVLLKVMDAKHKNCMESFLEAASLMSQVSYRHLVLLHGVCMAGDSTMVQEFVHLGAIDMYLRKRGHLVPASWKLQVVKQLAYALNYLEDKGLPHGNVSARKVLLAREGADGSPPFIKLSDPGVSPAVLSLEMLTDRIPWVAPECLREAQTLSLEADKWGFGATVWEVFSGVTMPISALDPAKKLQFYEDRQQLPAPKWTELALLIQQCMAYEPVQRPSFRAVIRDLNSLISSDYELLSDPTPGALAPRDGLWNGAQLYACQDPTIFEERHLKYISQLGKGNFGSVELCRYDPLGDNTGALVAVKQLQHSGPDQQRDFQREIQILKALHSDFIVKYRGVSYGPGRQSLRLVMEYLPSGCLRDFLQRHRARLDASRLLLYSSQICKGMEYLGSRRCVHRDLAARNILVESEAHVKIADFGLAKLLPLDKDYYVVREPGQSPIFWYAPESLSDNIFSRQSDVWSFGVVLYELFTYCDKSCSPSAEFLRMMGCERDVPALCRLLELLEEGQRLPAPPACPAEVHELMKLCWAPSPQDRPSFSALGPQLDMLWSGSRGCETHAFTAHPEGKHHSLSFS
Chain of JAK2 (O60674 whole entry): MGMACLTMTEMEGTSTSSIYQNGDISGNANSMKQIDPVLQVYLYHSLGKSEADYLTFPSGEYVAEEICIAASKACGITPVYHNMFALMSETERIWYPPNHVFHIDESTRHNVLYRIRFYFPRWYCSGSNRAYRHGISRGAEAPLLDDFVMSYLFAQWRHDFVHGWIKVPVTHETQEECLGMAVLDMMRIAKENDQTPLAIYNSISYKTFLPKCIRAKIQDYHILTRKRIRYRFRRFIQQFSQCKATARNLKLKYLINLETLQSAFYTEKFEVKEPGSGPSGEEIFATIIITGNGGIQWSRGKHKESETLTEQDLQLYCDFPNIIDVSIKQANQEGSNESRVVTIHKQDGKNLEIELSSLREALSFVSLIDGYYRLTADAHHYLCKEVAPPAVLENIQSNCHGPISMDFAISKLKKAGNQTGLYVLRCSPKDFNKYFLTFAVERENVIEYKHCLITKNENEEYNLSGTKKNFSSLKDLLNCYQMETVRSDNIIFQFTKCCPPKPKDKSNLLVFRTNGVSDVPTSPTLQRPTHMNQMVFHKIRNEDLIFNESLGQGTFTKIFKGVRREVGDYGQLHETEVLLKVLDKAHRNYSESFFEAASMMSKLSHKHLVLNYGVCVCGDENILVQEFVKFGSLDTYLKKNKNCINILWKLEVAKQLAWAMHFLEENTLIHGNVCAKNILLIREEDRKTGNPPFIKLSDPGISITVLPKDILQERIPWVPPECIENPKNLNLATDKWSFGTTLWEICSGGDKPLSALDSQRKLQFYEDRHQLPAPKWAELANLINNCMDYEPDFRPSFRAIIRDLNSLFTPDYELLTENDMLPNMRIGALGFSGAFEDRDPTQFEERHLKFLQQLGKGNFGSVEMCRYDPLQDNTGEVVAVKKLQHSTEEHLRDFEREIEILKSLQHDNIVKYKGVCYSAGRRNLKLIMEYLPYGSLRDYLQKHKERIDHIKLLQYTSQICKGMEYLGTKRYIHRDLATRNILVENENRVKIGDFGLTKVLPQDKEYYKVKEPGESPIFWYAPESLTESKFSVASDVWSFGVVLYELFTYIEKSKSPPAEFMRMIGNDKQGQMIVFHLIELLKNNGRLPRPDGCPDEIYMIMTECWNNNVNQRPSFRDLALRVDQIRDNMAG

`C=CC(=O)N(C)c1cc(Nc2ncc(Cl)c(NCCCNC(=O)c3ccc(N(C)C)cc3)n2)ccc1F` [Example 32, N-(3-(5-chloro-2-(4-fluoro-3-(N-methylacrylamido)phenylamino)pyrimidinyl-4-amino)propyl)-4-dimethylamino benzamide]: in assay [1], the activity at 10 µM came to 72%. The “JAK2 RV (ratio between the inhibitory rate of the test compound and that of Xeljanz)” value in assay [2] was determined as 0.03. Further, the inhibition at 0.03 µM in assay [2] (read-out: JAK2 % inhibitory rate @30 nM) came to 2%; in assay [4] (read-out: JAK3 % inhibitory rate @30 nM) it was 89%. Moreover, in assay [3], the activity worked out at 68%. In addition, in assay [4], the “JAK3 RV (ratio between the inhibitory rate of the test compound and that of Xeljanz)” value is 0.94. For the same compound, the activity at 0.3 µM in assay [5] was found to be 16%. Further, the “JAK1 RV (ratio between the inhibitory rate of the test compound and that of Xeljanz)” value in assay [6] turned out to be 0.57. In addition, the inhibition at 0.3 µM in assay [6] (read-out: JAK1 % inhibitory rate @300 nM) was 49%.
